Source: US20190000868A1, “COMPOSITIONS COMPRISING 4'-O-GLUCURONIDE EPICATECHIN AND METHODS OF MAKING AND USING SUCH COMPOSITIONS” (NESTEC S.A., priority 2015, published 2019)

System: endothelial nitric oxide synthase
Assay: eNOS phosphorylation (western blot) in isolated aortic rat rings
Type: cell-based
Parameters: dose or concentration left out as unconfirmed
Conditions: isolated thoracic aortic rings of male Wistar rats, incubated 1 h, FIG. 4
Protocol: Comparative experiments were conducted on the expression of endothelial nitric oxide synthase in isolated aortic rat rings.
Thoracic aortas were obtained from male adults Wistar rats after euthanasia. Each aorta was carefully dissected and harvested cleaned of excess tissue and cut into three equal segments, approximately 7 mm long. All aortic rings were pre-incubated for 30 min in Krebs solution (20 mM Hepes buffer, pH 7.4, containing 119 mM NaCl, 4.7 mM KCl, 1 mM MgSO4, 0.4 mM NaH2PO4, 0.15 mM Na2HPO4, 5 mM NaHCO3, 1.25 mM CaCl2, 5.5 mM glucose) aerated with 95% O2 and 5% CO2 at 37° C. and then incubated with vehicle (DMSO 1%) or the different metabolites for 1 h. Metabolites were first dissolved in DMSO 1% and tested in a final concentration […]. At the end of the incubation period aortic rings were frozen at −70° C. until the homogenate preparation. Homogenates for western blot and western blot determinations were carried out by the regular procedures and phosphorylation level of endothelial nitric oxide synthase was evaluated.

Structure (SMILES): O=C(O)[C@H]1O[C@@H](Oc2ccc([C@H]3Oc4cc(O)cc(O)c4C[C@H]3O)cc2O)[C@H](O)[C@@H](O)[C@@H]1O [4′-O-glucuronide epicatechins, 4′-O-glucuronide epicatechin]
- phosphorylation level of endothelial nitric oxide synthase (p-eNOS vs eNOS total): increased eNOS phosphorylation relative to control and chemically similar epicatechins
